Source: US9475842B2, “Hexadepsipeptide analogues as anticancer compounds” (PIRAMAL ENTERPRISES LIMITED, priority 2012, dated 2016)
Read-outs that look alike come from different tables or passages of the source.

Tests used:
[1] = tested on: HCT 116 (Colorectal Cancer); assay: Monolayer assay (CCK-8 cytotoxicity); format: cell-based, human; conditions: HCT116, Table 6, read-out: IC50 (μM) in different cancer cell lines: HCT116
Procedure: (§1) The assays were designed as in the reference, BMC Cancer, 2010, 10, 610, 1-11; the disclosure of which is incorporated by reference for the teaching of the assay.
(§2) Human tumour cell lines: Panc-1 (Pancreatic Cancer), HCT 116 (Colorectal Cancer), ACHN (Renal Cell Carcinoma), Calu-1 (Lung Carcinoma), MiaPaca2 (Pancreatic Cancer), FADU (Head and Neck Cancer), PC3 (prostate Cancer), G361 (Melanoma), MDA-MB435S (Melanoma), HeLa (Cervical Cancer) were grown in Minimal Essential Media with Eagle's Basal Salts (MEM-EBS) obtained from AMIMED (BioConcept-Switzerland). Tumour cell lines: MDA-MB231 (Breast Cancer), JURKAT (T cell leukaemia), H460 (Small Cell Lung Cancer) were cultured in RPMI 1640 (AMIMED, BioConcept, Switzerland) medium. All tumour cell lines were supplemented with 10% Foetal Bovine Serum (FBS) (GIBCO), 1% Penicillin/Streptomycin (Sigma) and 1% Anti-Anti (GIBCO) and grown in T-175 tissue culture flasks (Nunc). MCF-10A, a non-tumourigenic cell line, was cultured in Mammary Epithelial Basal Medium (MEBM) with all standard additions (Lonza, Catalog. No. CC-3150). All cells were grown in 5% CO2 incubator at 37° C. Cells were passaged at 80-90% confluence. Adherent cells were trypsinised using Trypsin-EDTA (Sigma) and maintained. All cell lines were purchased from ATCC (Rockville, Md., USA).
(§3) Compound of Formula (1a) [described in example 7] was dissolved in DMSO to give a required stock solution of 20 mM. Eight different concentrations of the compound of Formula (1a) were prepared by serial dilution of stock solution finally resulting in a (compared to the test concentration) 200-fold higher concentration. Compound of Formula (1a) was tested at the concentration of 0.0001 μM, 0.001 μM, 0.01 μM, 0.03 μM, 0.1 μM, 0.3 μM, 1 μM and 3 μM respectively. Each concentration was evaluated in triplicate.
(§4) Method for determination of IC50 of the compound of Formula (1a): • a) Different cancer/normal cells were seeded at a density of 3000 cells/200 μL well, in a tissue culture grade 96 well plate and allowed them to recover for 24 hrs in a humidified 5±0.2% CO2 incubator at 37±0.5° C. • b) After 24 hrs, 1 μL of 200× (200 times higher than required concentration is denoted as 200×) compound of Formula (1a), dissolved in DMSO, was added to the above tissue culture plate seeded with cancer/normal cells. The final concentration of DMSO was 0.5% in wells. DMSO was used as a vehicle control. • c) After 24 hrs the plate was removed from CO2 incubator and 5 μL of CCK-8 (Dojindo Molecular Technologies, Inc. USA, catalog, no. CK04-20) per well was added. • d) The plate was then placed at 37° C. for 2 hrs. • e) The absorbance was recorded at 450 nm. • f) The percent cytotoxicity was calculated using the following formula
(§5) The IC50 value was estimated by visual inspection of the concentration-effect curve. For calculation of mean IC50 values over the fourteen cell lines as tested, the geometric mean was selected.
(§6) The assays were designed as described above in example 16.
(§7) The IC50 value was estimated by visual inspection of the concentration-effect curve. For calculation of mean IC50 values over the six cell lines (PC3, MDA MB, HCT116, MCF7, MIAPaCa2, MCF10A) as tested, the geometric mean was selected.

[2] = tested on: MDA-MB231 (Breast Cancer); assay: Monolayer assay (CCK-8 cytotoxicity); format: cell-based, human; conditions: MDA MB-231, Table 6, read-out: IC50 (μM) in different cancer cell lines: MDA MB-231
Procedure: as §1, §2, §3, §4, §5, §6, §7

PC3 (prostate Cancer) = assay: Monolayer assay (CCK-8 cytotoxicity); format: cell-based, human; conditions: PC3, Table 6, read-out: IC50 (μM) in different cancer cell lines: PC3
Procedure: as §1, §2, §3, §4, §5, §6, §7

[3] = tested on: MCF-10A, a non-tumourigenic cell line; assay: Monolayer assay (CCK-8 cytotoxicity), normal cells; format: cell-based; conditions: Table 6
Procedure: as §1, §2, §3, §4, §5, §6, §7

MCF7 = assay: Monolayer assay (CCK-8 cytotoxicity); format: cell-based; conditions: Table 6, read-out: IC50 (μM) in different cancer cell lines: MCF7
Procedure: as §1, §4, §6, §7

different cancer cells = assay: Monolayer assay, range over the cancer cell lines tested; format: cell-based; conditions: Homo sapiens; range over the cancer cell lines of Table 6
Procedure: as §1, §2, §3, §4, §5, §6, §7

[4] = Solubility (physical properties); format: physicochemical
[5] = MCF10A normal cells, read-out: IC50 (μM) in different cancer cell lines: MCF10A
[6] = read-out: IC50 (μM) in different cancer cell lines: MCF10A, MCF10A normal cells
[7] = Homo sapiens, MCF-10A, read-out: IC50 (μM) in different cancer cell lines: MCF10A, MCF10A normal cells

Row | Structure (SMILES) | IC50 [1] | IC50 [2] | IC50 (PC3 (prostate Cancer)) | IC50 [3, 5] | IC50 (MCF7) | IC50 ([1]; Homo sapiens, HCT-116) | IC50 ([2]; Homo sapiens) | IC50 (PC3 (prostate Cancer); Homo sapiens) | IC50 [3, 6] | IC50 (MCF7; Homo sapiens) | IC50 (different cancer cells) | IC50 [3, 7] | Solubility in organic solvents ([4]; chloroform, ethyl acetate and methanol) | Solubility in water ([4]; water)
1 | CON1C(=O)C2CCCNN2C(=O)C(NC(=O)C(C)(O)C2(O)CCC(CC(C)C)C(C)O2)C(C(C)C)OC(=O)C(C)N(O)C(=O)C2CCCNN2C(=O)CNC(=O)C1C (stereo not shown) [Compound 1, 2-hydroxy-N-(18-hydroxy-22-isopropyl-6-methoxy-7,19-dimethyl-5,8,11,17,20,24-hexaoxotetracosahydrodipyridazino[6,1-f:6′,1′-o][1,4,7,10,13,16]oxapentaazacyclononadecin-23-yl)-2-(2-hydroxy-5-isobutyl-6-methyltetrahydro-2H-pyran-2-yl) propanamide] | 0.287 µM | 0.293 µM | 0.502 µM | 0.247 µM | 0.355 µM | – | – | – | – | – | – | – | – | –
2 | CON1C(=O)C2CCCNN2C(=O)C(NC(=O)C(C)(O)C2(O)CCC(CC(C)C)C(C)O2)C(C(C)C)OC(=O)C(C)N(OC)C(=O)C2CCCNN2C(=O)CNC(=O)C1C (stereo not shown) [Compound 2, 2-hydroxy-2-(2-hydroxy-5-isobutyl-6-methyltetrahydro-2H-pyran-2-yl)-N-(22-isopropyl-6,18-dimethoxy-7,19-dimethyl-5,8,11,17,20,24-hexaoxotetracosahydrodipyridazino[6,1-f:6′,1′-o][1,4,7,10,13,16]oxapentaazacyclononadecin-23-yl)propanamide] | – | – | – | – | – | 0.635 µM | 0.8 µM | 1.04 µM | 0.691 µM | 0.826 µM | 9 to 1040 nM | – | – | –
3 | CC(C)CC1CCC(O)(C(C)(O)C(=O)NC2C(=O)N3NCCCC3C(=O)N(OC(=O)CCNC(=O)OCc3ccccc3)C(C)C(=O)NCC(=O)N3NCCCC3C(=O)N(O)C(C)C(=O)OC2C(C)C)OC1C (stereo not shown) [Compound 3, 18-hydroxy-23-(2-hydroxy-2-(2-hydroxy-5-isobutyl-6-methyltetrahydro-2H-pyran-2-yl)propanamido)-22-isopropyl-7,19-dimethyl-5,8,11,17,20,24-hexa oxoicosahydrodipyridazino[6,1-f:6′,1′-o][1,4,7,10,13,16]oxapentaazacyclononadecin-6(7H,13H,22H)-yl 3-(((benzyloxy)carbonyl)amino)propanoate] | – | – | – | – | – | 0.009 µM | 0.03 µM | 0.044 µM | 0.031 µM | 0.025 µM | 9 to 1040 nM | – | – | –
4 | CC(C)CC1CCC(O)(C(C)(O)C(=O)NC2C(=O)N3NCCCC3C(=O)N(OC(=O)CCN)C(C)C(=O)NCC(=O)N3NCCCC3C(=O)N(O)C(C)C(=O)OC2C(C)C)OC1C (stereo not shown) [Compound 4, 18-hydroxy-23-(2-hydroxy-2-(2-hydroxy-5-isobutyl-6-methyltetra hydro-2H-pyran-2-yl)propanamido)-22-isopropyl-7,19-dimethyl-5,8,11,17,20,24-hexaoxo icosahydrodipyridazino[6,1-f:6′,1′-o][1,4,7,10,13,16]oxapentaazacyclononadecin-6(7H,13H,22H)-yl 3-aminopropanoate] | 0.17 µM | 0.2 µM | – | < 0.3 µM | 0.03 µM | – | – | – | – | – | – | – | – | –
5 | CC(C)CC1CCC(O)(C(C)(O)C(=O)NC2C(=O)N3N=CCCC3C(=O)N(O)C(C)C(=O)NCC(=O)N3N=CCCC3C(=O)N(O)C(C)C(=O)OC2C(C)C)OC1C (stereo not shown) [Compound 5, N-(6,18-dihydroxy-22-isopropyl-7,19-dimethyl-5,8,11,17,20,24-hexaoxo-3,4,4a,5,6,7,8,9,10,11,15,16,16a,17,18,19,20,22,23,24-icosahydrodipyridazino[6,1-f:6′,1′-o][1,4,7,10,13,16]oxapentaazacyclononadecin-23-yl)-2-hydroxy-2-(2-hydroxy-5-isobutyl-6-methyltetrahydro-2H-pyran-2-yl)propanamide] | – | – | – | – | – | < 0.01 µM | 0.012 µM | – | < 0.01 µM | 0.018 µM | 9 to 1040 nM | 0.01 to 0.83 µM | – | –
6 | CC(C)CC1CCC(O)(C(C)(O)C(=O)NC2C(=O)N3NCCCC3C(=O)NC(C)C(=O)NCC(=O)N3NCCCC3C(=O)NC(C)C(=O)OC2C(C)C)OC1C (stereo not shown) [Compound 6, 2-hydroxy-2-(2-hydroxy-5-isobutyl-6-methyltetrahydro-2H-pyran-2-yl)-N-(22-isopropyl-7,19-dimethyl-5,8,11,17,20,24-hexaoxotetracosahydrodipyridazino[6,1-f:6′,1′-o][1,4,7,10,13,16]oxapentaazacyclononadecin-23-yl)propanamide] | – | – | – | – | – | 0.284 µM | 0.343 µM | 0.998 µM | 0.819 µM | 0.977 µM | 9 to 1040 nM | – | – | –
7 | CC(=O)ON1C(=O)C2CCCNN2C(=O)C(NC(=O)C(C)(O)C2(O)CCC(CC(C)C)C(C)O2)C(C(C)C)OC(=O)C(C)N(O)C(=O)C2CCCNN2C(=O)CNC(=O)C1C (stereo not shown) [Compound 7, 18-hydroxy-23-(2-hydroxy-2-(2-hydroxy-5-isobutyl-6-methyltetra hydro-2H-pyran-2-yl)propanamido)-22-isopropyl-7,19-dimethyl-5,8,11,17,20,24-hexaoxo icosahydrodipyridazino[6,1-f:6′,1′-o[]1,4,7,10,13,16]oxapentaazacyclononadecin-6(7H,13H,22H)-yl acetate] | 0.257 µM | 0.32 µM | 0.36 µM | 0.83 µM | 0.843 µM | – | – | – | – | – | – | – | – | –
8 | CC(C)CC1CCC(O)(C(C)(O)C(=O)NC2C(=O)N3N=CCCC3C(=O)N(O)C(C)C(=O)NCC(=O)N3NCCCC3C(=O)N(O)C(C)C(=O)OC2C(C)C)OC1C (stereo not shown) [Formula (1b), N-(6,18-dihydroxy-22-isopropyl-7,19-dimethyl-5,8,11,17,20,24-hexaoxo-3,4,4a,5,6,7,8,9, 10,11,13,14,15, 16,16a, 17,18,19,20,22,23,24-docosahydrodipyridazino[6,1-f:6′,1′-o][1,4,7,10, 13,16]oxapentaazacyclononadecin-23-yl)-2-hydroxy-2-(2-hydroxy-5-isobutyl-6-methyltetra hydro-2H-pyran-2-yl)propanamide] | – | – | – | – | – | 0.032 µM | 0.018 µM | 0.035 µM | – | 0.071 µM | 18 to 71 nM | 0.03 µM | Soluble in chloroform, ethyl acetate and methanol and | insoluble in water
